Reference: patent publication US20240148002A1, “BIOCIDAL COMPOSITIONS CONTAINING COPPER AND A CO-BIOCIDE” (CORNING INCORPORATED, priority 2021, published 2024)

System: Pseudomonas aeruginosa (P. aeruginosa)
Test: Minimum bactericidal concentration (MBC) test: serial dilutions in thickened Letheen Broth, plating and colony count
Type: cell-based
Parameters: key to MBC observation (contamination grade): −: no bacteria was observed on the plates; +: a trace of contamination was observed (<10 colonies); ++: light contamination was observed (>100 colonies); +++: heavy contamination was observed (continuous smear of growth)
Conditions: 24 hours at 37° C.
Procedure: The minimum bactericidal concentration (MBC) values reported herein were determined using Pseudomonas aeruginosa (P. aeruginosa), which is a gram-negative pathogen that can cause severe acute and chronic infections. The MBC is the lowest biocide or biocide combination concentration that kills 100% of the tested bacteria. The cultures of P. aeruginosa were grown for 24 hours in Letheen Broth before treatment with each biocide (e.g., copper-containing glass particles or organic co-biocide) or biocide combination (e.g., copper-containing glass particles and an organic co-biocide). A stock copper-containing glass particle dispersion containing 10 wt % copper-containing glass particles and 1.5% hydoxyethylcellulose (HEC) thickener (Natrosol™ Plus 330 PA) was prepared for serial dilution in thickened Letheen Broth (Letheen Broth containing 1.5 wt % HEC thickener) to achieve the desired test concentrations. A stock organic co-biocide or biocide combination dispersion was prepared by combining 5 grams of a 1 wt % dispersion of each organic co-biocide or biocide combination in 1 wt % HEC thickener for serial dilution to achieve the desired test concentrations. 1000 μL of the dispersion of interest was added to a microcentrifuge tube (referred to as “tube 1”). Serial dilution continued with the dilution of 500 μL of the dispersion from tube 1 with 500 μL of thickened Letheen Broth (“tube 2”). Serial dilutions were continued in this manner […] (tube 3 to tube 10). Tube 11 contained 500 μL of thickened Letheen Broth as a “broth blank.” 50 μL of P. aeruginosa was transferred directly from culture into each of tubes 1-11 and the tubes were incubated at 37° C. for 24 hours. At the end of the incubation period, each tube 1-11 was plated and the plates were incubated at 37° C. for 24 hours. At the end of the incubation period, the plates were removed and the colonies on each plate were counted and recorded.
The number of colonies remaining after treatment was determined for serial dilutions of 3 different organic biocides alone and in combination with copper-containing glass particles. Example 1A was treated with serial dilutions of Nuosept® 95 Preservative, which contains a mixture of 5-hydroxymethyl-1-aza-3,7-dioxabicyclo-(3.3.0) octane, 5-hydroxymethoxymethyl-1-aza-3,7-dioxabicyclo-(3.3.0) octane, and 5-hydroxypoly(methyleneoxy)methyl-1-aza-3,7-dioxabicyclo-(3.3.0) octane. Examples 1B and 1C were treated with serial dilutions of a 50:50 mixture and a 25:75 mixture, respectively, of Nuosept® 95 Preservative and copper-containing glass particles. Example 2A was treated with serial dilutions of benzisothiazolinone (BIT). Examples 2B and 2C were treated with serial dilutions of a 50:50 mixture and a 25:75 mixture, respectively, of BIT and copper-containing glass particles. Example 3A was treated with serial dilutions of Bronopol. Examples 3B and 3C were treated with serial dilutions of a 50:50 mixture and a 25:75 mixture, respectively, of Bronopol and copper-containing glass particles. Examples 4A and 4B were duplicate samples treated with serial dilutions of the copper-containing glass particles.
For each Example 1A-C, 2A-C, 3A-C, and 4A-B, 1000 μL of the dispersion of interest, the stock organic co-biocide dispersion, the stock copper-containing glass particle dispersion, or the indicated ratio of each dispersion, was added to a microcentrifuge tube (referred to as “tube 1”). 500 μL of the dispersion from tube 1 was diluted with 500 μL of thickened Letheen Broth (“tube 2”). Serial dilutions with thickened Letheen Broth were prepared up to tube 10. Tube 11 contained 500 μL of thickened Letheen Broth as a “broth blank.” 50 μL of P. aeruginosa was transferred directly from culture into each of tubes 1-11 and the tubes were incubated at 37° C. for 24 hours. At the end of the incubation period, each tube 1-11 was plated and the plates were incubated 37° C. for 24 hours. […]

[1] = Biocide Conc. 3.91 ppm (tube 10)
[2] = Biocide Conc. 7.81 ppm (tube 9)
[3] = Biocide Conc. 15.63 ppm (tube 8)
[4] = Biocide Conc. 31.25 ppm (tube 7)
[5] = Biocide Conc. 62.5 ppm (tube 6)
[6] = Biocide Conc. 1000 ppm (tube 2)
[7] = Biocide Conc. 2000 ppm (tube 1)

| SMILES | MBC observation (contamination grade) [1] | colony count [1] | MBC observation (contamination grade) [2] | colony count [2] | MBC observation (contamination grade) [3] | colony count [3] | MBC observation (contamination grade) [4] | colony count [4] | MBC observation (contamination grade) [5] | colony count [5] | MBC observation (contamination grade) (Biocide Conc. 125 ppm (tube 5)) | colony count (Biocide Conc. 125 ppm (tube 5)) | MBC observation (contamination grade) (Biocide Conc. 250 ppm (tube 4)) | colony count (Biocide Conc. 250 ppm (tube 4)) | MBC observation (contamination grade) (Biocide Conc. 500 ppm (tube 3)) | colony count (Biocide Conc. 500 ppm (tube 3)) | MBC observation (contamination grade) [6] | colony count [6] | MBC observation (contamination grade) [7] | colony count [7] |
| --- | --- | --- | --- | --- | --- | --- | --- | --- | --- | --- | --- | --- | --- | --- | --- | --- | --- | --- | --- | --- |
| O=[N+]([O-])C(Br)(CO)CO [Ex. 3A, Bronopol] | +++ | (>1000) colonies | +++ | (>1000) colonies | − | 0 colonies | − | 0 colonies | − | 0 colonies | − | 0 colonies | − | 0 colonies | − | 0 colonies | − | 0 colonies | − | 0 colonies |
| O=c1[nH]sc2ccccc12 [Ex. 2A, benzisothiazolinone] | +++ | (>1000) colonies | +++ | (>1000) colonies | +++ | (>1000) colonies | ++ (light contamination was observed (>100 colonies)) | 513 colonies | + (a trace of contamination was observed (<10 colonies)) | 35 colonies | − | 0 colonies | − | 0 colonies | − | 0 colonies | − | 0 colonies | − | 0 colonies |
